Laboratory results taken from patent US20080108706A1, “Chemical resection of pancreas” (priority 1999, published 2008).
pIC50: −log10 of the molar value. “Also recorded” adds a separate entry of the source.

Assays:
[1] = tested on: acinar-derived cell line AR42J; test: Growth of AR42J cells, IC50 assays; format: cell-based
Description: (OH)2 DEHSPM was also tested in the acinar-derived cell line AR42J.

[2] = tested on: native polyamine levels in AR42J cells; test: Polyamine pool analysis in AR42J cells; format: cell-based; conditions: 5 μm analogue
Description: In addition, the effect of (OH)2DEHSPM on the native polyamine levels in this cell line was evaluated.

[3] = Beagle study Part A: long-term toxicity and pancreatic function after (R,R)-(HO)2DEHSPM; format: in vivo, beagles; conditions: for SGPT / alkaline phosphatase: approximately 60-days post-drug
Description: (§1) Five male beagles approximately 6-8 months of age were obtained from Harlan Sprague Dawley. They were provided with food and water ad libitum and were allowed to acclimate to their new surroundings for two weeks. The animals were weighed prior to starting drug administration and were weighed once per week during the drug dosing period. A CBC and chemistry panel were performed every 1-2 weeks. The drug study was performed in two stages. In the first phase, three animals were given the drug at 2.15 mg/kg/day (dogs #516, 518 and 526). In the second phase, the other two dogs were given the drug at 4.3 mg/kg/day (dogs #490 and 494). In both experiments, the daily drug dose was divided and administered twice daily at 12-hour intervals.
(§2) The results of the long-term washout and subsequent toxicity of the (R,R)—(HO)2DEHSPM are summarized. Briefly, the drug was initially thought to be well tolerated at the 2.15 mg/kg/day dose. In order to compare the long-term washout of the (HO)2DEHSPM as compared to DEHSPM, it was decided not to sacrifice the animal (#516) until 75-days post-drug. […] Chronic pancreatitis or intestinal malabsorption was suspected. […] Inasmuch as the dog was imminently scheduled for sacrifice, no treatment was initiated. At necropsy 75-days post-drug, there was little, if any, abdominal fat and the animal's pancreas was atrophied as described below.
(§3) However, approximately 55-60 days post-drug, it was noted that although the dogs in the 4.3 mg/kg/day group (#490 and 494) were eating well and were bright, alert and responsive, they began losing weight (2 kg). […] In order to further confirm the exocrine pancreatic insufficiency, additional experiments were performed.
(§4) The two dogs (#490 and 494) were fed a prescription canned and dry dog food and were supplemented with Viokase, a pancreatic enzyme preparation, by mixing three tablets with food or by oral administration immediately before each feeding. The dogs were maintained on this regimen for approximately three weeks. During this time, their weight and blood chemistries were closely monitored. The Viokase supplementation was then stopped and the same parameters were again evaluated. One week after the Viokase administration had ceased, the animals were euthanized and tissues were taken for histology and for the determination of tissue polyamine levels.

exocrine pancreas [4] = test: as above; format: in vivo, beagles
Description: as §1, §2, §3, §4

exocrine pancreas [5] = test: Beagle study Part B: comparison of (R,R)- v. (S,S)-(HO)2DEHSPM; format: in vivo, beagles
Description: As the pancreatic insufficiency side-effect that was observed after the administration of the (R,R)—(HO)2DEHSPM to the beagles may have been related to the (R,R)-chirality of the molecule, the (S,S)-enantiomer was synthesized and was compared in a head-to-head fashion with the (R,R)-enantiomer. To perform this experiment, five male beagles approximately 6-8 months of age were obtained from Harlan Sprague Dawley. There were provided with food and water ad libitum and were allowed to acclimate to their new surroundings for two weeks. The animals were weighed prior to starting drug administration and were weighed once per week during the drug dosing period. A CBC and chemistry panel and a Holter monitor were performed once per week. In addition to the usual tests, additional pancreatic function-specific tests were also performed. These additional evaluations included a fecal trypsin test, examination of the feces for fecal fat and serum trypsin-like immunoreactivity determinations. It was hoped that these signs of pancreatic insufficiency would only appear in the animals given the (R,R)-enantiomer and would not be observed in the dogs that were given the (S,S)-molecule. The pancreatic insufficiency may not become evident until approximately 7-8 weeks post-drug. At the conclusion of the experiment, all of the animals were sacrificed and the histology and tissue polyamine levels were determined.
Five male beagles approximately 6-8 months of age were obtained from Harlan Sprague Dawley. They were provided with food and water ad libitum and were allowed to acclimate to their new surroundings for two weeks. Once two sets of baseline data were obtained, the animals were randomly divided into three groups: two of the dogs (#468 and 500) received the (R,R)—(HO)2DEHSPM; two of the animals (#440 and 476) were given (S,S)—(HO)2DEHSPM; and one dog (#452) served as an untreated (saline only) control. The dogs were given the (R,R)—or (S,S)—(HO)2DEHSPM at a dose of 4.3 mg/kg/day subcutaneously in divided doses, 2.15 mg/kg BID.
The animals were weighed weekly during the acclimation period, the drug dosing period and throughout the post-drug observational period. A CBC, chemistry panel and pancreatic function tests (trypsin-like immunoreactivity, fecal trypsin, fecal fat, etc.) were performed once per week. Additional tests, e.g., glucose tolerance and fat absorption, were performed as necessary. The dogs were Holter monitored twice during the acclimation period and then weekly during drug dosing.

[6] = Non-tumor-bearing toxicity controls, same regimens; format: in vivo; conditions: group 3, NTB; IV QD 3, 4, 6-9, 14, 17, 18; total dosage 240 mg/kg
[7] = dog #516, 2.15 mg/kg/day, approximately two months post-drug
[8] = dogs #490 and 494, 4.3 mg/kg/day, approximately 55-60 days post-drug
[9] = 4.3 mg/kg/day sc for 13 days, post-drug
[10] = approximately five weeks post-drug, 4.3 mg/kg/day sc for 13 days
[11] = dog #468, 4.3 mg/kg/day sc for 13 days
[12] = dog #500, 4.3 mg/kg/day sc for 13 days

## CCNCC[C@@H](O)CNCCCCNC[C@H](O)CCNCC.Cl.Cl.Cl.Cl [(R,R)-(HO)2DEHSPM, N^1,N^14-Diethyl-3(R) 12(R)-dihydroxyhomospermine tetrahydrochloride]
[1]; treatment period 4 days (= 1.33 doublings)
  pIC50: 4.05
[1]; treatment period 6 days (= 2 doublings)
  pIC50: 5.92
[1]; treatment period 12 days (= 4 doublings)
  pIC50: 7.05
[2]
  Analogue level: 4748 pmol/million cells
  PUT, native polyamine level as % polyamine pools relative to untreated controls: 0%
  SPD, native polyamine level as % polyamine pools relative to untreated controls: 21%
  SPM, native polyamine level as % polyamine pools relative to untreated controls: 82%
[3]; dog #490, 4.3 mg/kg/day
  SGPT: 1108 U/L
  alkaline phosphatase: 542 U/L
[3]; dog #494, 4.3 mg/kg/day
  SGPT: 776 U/L
  alkaline phosphatase: 436 U/L
[3]; [7]
  SGPT (routine chemistry panel): elevated
[3]; [8]
  SGPT (blood chemistries): elevated
Exocrine pancreas [4]; 75-, 78-, 88- and 92-days post-treatment, all cases
  pancreas at necropsy: Severe atrophy
Exocrine pancreas [4]; 75-days post-treatment sample
  histopathology of pancreatic sample: moderate to severe pancreatitis
Exocrine pancreas [4]; both dogs #490 and 494, 4.3 mg/kg/day, throughout Viokase and post-Viokase periods
  trypsin-like immunoreactivity (TLI): below 2.0 ng/ml
Exocrine pancreas [4]; dog #516, 2.15 mg/kg/day
  serum trypsin-like immunoreactivity test: confirmed the presence of exocrine pancreatic insufficiency
Exocrine pancreas [4]; dog #516, 2.15 mg/kg/day, 75-days post-drug
  pancreas at necropsy: atrophied
Exocrine pancreas [4]; [7]
  body weight: begun losing weight
  fecal check (fat in stool): large amount of fat
Exocrine pancreas [4]; dogs #490 and 494, 4.3 mg/kg/day
  qualitative fecal fat and trypsin-like immunoreactivity: confirmed the presence of exocrine pancreatic insufficiency
Exocrine pancreas [4]; [8]
  weight loss: 2 kg
Exocrine pancreas [4]; dogs #490 and 494, 4.3 mg/kg/day, one week after Viokase ceased
  pancreas at necropsy: severely atrophied
Exocrine pancreas [4]; dogs #490 and 494, 4.3 mg/kg/day, throughout the experiment
  glucose levels (endocrine functionality): normal
Exocrine pancreas [5]; 4.3 mg/kg/day sc for 13 days, 52- to 64-days post-drug
  histopathology of pancreas at necropsy: moderate to severe atrophy of the exocrine pancreases
Exocrine pancreas [5]; [9]
  alopecia: also noted
  diagnosis from pancreatic function tests: confirmed a diagnosis of exocrine pancreatic insufficiency
  glucose tolerance test (endocrine pancreas): “normal” response
  post-feeding serum samples after a fatty meal: clear, indicating an inability to digest fats
Exocrine pancreas [5]; 4.3 mg/kg/day sc for 13 days, until euthanasia 52- to 64-days post-drug
  clinical course: continued to deteriorate
Exocrine pancreas [5]; 10-days post-drug
  histology of pancreatic tissue samples: no histological abnormalities
Exocrine pancreas [5]; [10]
  TLI: began to decrease
  fecal trypsin test results: abnormal
Exocrine pancreas [5]; approximately five weeks post-drug, 4.3 mg/kg/day sc for 13 days, both dogs of group
  body weight: began losing weight very rapidly
Exocrine pancreas [5]; [11]
  frank and/or occult blood in stool, found until: about 17 days post-drug
  loss of body weight at end of drug dosing period: 1.4 kg
Exocrine pancreas [5]; dog #468, day thirteen of drug administration, 4.3 mg/kg/day sc, 4.3 mg/kg/day
  clinical signs: bloody diarrhea and anorexia; also recorded: developed bloody diarrhea and stopped eating
Exocrine pancreas [5]; dog #468, returned to normal during the 3.5 hours
  blood glucose level in glucose tolerance test: exceeded 160 mg/dl
Exocrine pancreas [5]; [12]
  clinical signs: developed bloody diarrhea one-day post-drug
  gain of body weight at end of drug dosing period: 0.4 kg
Exocrine pancreas [5]; dogs #468 and 500, 52- and 58-days post-drug
  pancreas at necropsy, gross appearance: greatly atrophied (about one-fourth the control weight)
[6]
  Percent Body Wt. Loss: 30%
